Source: patent publication US9439875B2, “Anxiolytic effect of pterostilbene” (The United States of America, as represented by The …, priority 2011, dated 2016)
Where “and” joins values, the source holds several entries; their conditions need not be identical. Identical values can stand only once. Entries after “also recorded” stand apart in the source; their conditions may differ. Like-named read-outs stand apart in the source and are kept apart here.

How the values were obtained:
[1] = Hippocampus level of pterostilbene by GC-MS; format: in vivo, mouse; conditions: for Pterostilbene level in the hippocampus (± SD): mouse
Protocol: (§1) After the EPM session, blood samples were taken from each mouse by submandibular vein puncture in heparinized blood collection vials. Mice were then sacrificed and brains quickly removed. Their prefrontal cortex (PFC) and hippocampus were dissected out on ice, and immediately frozen in liquid nitrogen and stored at −80° C. until further processing. Blood samples were centrifuged at 2000 rpm at 4° C. for 20 min to get the plasma as supernatant. The plasma samples were stored at −80° C. until used.
Hippocampus tissues were kept at −80° C. until time of extraction. Hippocampus (left and right) from 2-3 animals was combined in an Eppendorf tube, and processed as one sample. To the tube was added 200 μL phosphate buffer (0.2M NaH2PO4:0.2M Na2HPO4, and the tissues were homogenized manually for 2 minutes. To 100 μl aliquot, 50 μL β-glucuronidase (5000 U/mL potassium phosphate buffer) was added. The mixture was vortex-mixed, and incubated (37° C., 20 hours) while shaking (750 rpm). The samples were then centrifuged (15 min, 7000 g, 4° C.). The supernatant was collected and partitioned with ethyl acetate (200 μL, twice). The ethyl acetate layers were combined, dried under a stream of nitrogen, and used for GC-MS analysis. Extraction of the prefrontal cortex (PFC) was performed in the same manner as the hippocampus; PFC tissues from three animals were combined and treated as one sample.
(§2) The nitrogen-dried samples (plasma and brain tissue extracts) were treated with 30 μL of a 1:1 mixture of N,O-bis[trimethylsilyl]trifluoroacetamide and dimethylformamide (Pierce Biotechnology, Inc., Rockford, Ill.) and heated at 70° C. for 40 min. The derivatized samples were analyzed for levels of pterostilbene using a JEOL GCMate II Instrument (JEOL USA Inc., Peabody, Mass.) equipped with a J&W DB-5 capillary column (0.25 mm internal diameter, 0.25 μm film thickness, and 30 m length; Agilent Technologies, Foster City, Calif.). […] The carrier gas was ultrahigh purity helium, at 1 mL/min flow rate. The injection port, GC-MS interface, and ionization chamber were kept at 250, 230, and 230° C., respectively. The volume of injection was 2 μL (splitless injection). The mass spectrum was acquired in the positive, selected ion-monitoring mode (m/z 328, 313, and 297); electron impact 70 eV. GC-MS analyses were in duplicates. The retention time of pterostilbene was 10.2 min. Quantitation of pterostilbene was done using an external standard of a synthetic sample of pterostilbene previously characterized for structure and purity.

[2] = Plasma level of pterostilbene by GC-MS; format: in vivo; conditions: mouse, after EPM session; for concentration at 65 min: Swiss Webster, plasma, oral, read-out: Pterostilbene level in the plasma (± SD)
Protocol: as §1
Plasma were kept at −80° C., and thawed on ice prior to extraction. Plasma were treated with β-glucuronidase, to hydrolyze any glucuronidated pterostilbene, following published procedures (Remsberg et al., supra). Briefly, 50 μL plasma (from each animal) was transferred to an Eppendorf tube, and 60 μL of β-glucuronidase solution (5000 U/mL potassium phosphate buffer, 75 mM, pH 6.8 at 37° C.) was added. The mixture was vortex-mixed then incubated at 37° C. while shaking at 750 rpm for 20 hrs. Thereafter, ice-cold HPLC grade acetonitrile was added, vortex-mixed, and centrifuged for 5 min at 5000 rpm, 4° C. The supernatant was collected, and dried under a stream of nitrogen. The dried supernatant was used for GC-MS analysis.
as §2

[3] = in vivo; cited from earlier work
[4] = system: Swiss Webster mice; test: Spontaneous motor (locomotor) activity; format: in vivo, mouse
Protocol: To measure spontaneous motor activity, adult Swiss Webster mice (n=8-10/group) were administered with pterostilbene by oral gavage. Each mouse was then placed in the locomotor chamber and acclimated in the Plexiglas enclosure for 30 min. After the 30 min acclimation period, locomotor activity was measured for 30 min using an automated activity monitoring system (San Diego Instruments, CA, USA). Total activity was expressed as the total number of interruptions of 16 cell photobeams per chamber.

[5] = Prefrontal cortex level of pterostilbene by GC-MS; format: in vivo, mouse; conditions: all the doses administered (1-10 mg/kg p.o.)
Protocol: as §1
Hippocampus tissues were kept at −80° C. until time of extraction. Hippocampus (left and right) from 2-3 animals was combined in an Eppendorf tube, and processed as one sample. […]
The nitrogen-dried samples (plasma and brain tissue extracts) were treated with 30 μL of a 1:1 mixture of N,O-bis[trimethylsilyl]trifluoroacetamide and dimethylformamide (Pierce Biotechnology, Inc., Rockford, Ill.) and heated at 70° C. for 40 min. The derivatized samples were analyzed for levels of pterostilbene using a JEOL GCMate II Instrument (JEOL USA Inc., Peabody, Mass.) equipped with a J&W DB-5 capillary column (0.25 mm internal diameter, 0.25 μm film thickness, and 30 m length; Agilent Technologies, Foster City, Calif.). […] Quantitation of pterostilbene was done using an external standard of a synthetic sample of pterostilbene previously characterized for structure and purity.

- Pterostilbene level in the hippocampus (± SD) ([1]; 2 mg/kg BW p.o.): 0.2627 ± 0.0230 ng/hippocampus
- Pterostilbene level in the hippocampus (± SD) ([1]; 5 mg/kg BW p.o.): 0.5314 ± 0.1830 ng/hippocampus
- Pterostilbene level in the hippocampus ([1]; range over 2, 5 and 10 mg/kg doses): 0.2627-1.1217 ng/hippocampus
- Pterostilbene level in the plasma (± SD) ([2]; 1 mg/kg BW p.o.): 10.0887 ± 6.6699 ng/mL
- Pterostilbene level in the plasma (± SD) ([2]; 10 mg/kg BW p.o.): 130.2651 ± 40.2558 ng/mL
- concentration at 65 min ([2]; 1 mg/kg BW, 1 mg/kg BW p.o.): 10.1 ± 6.67 ng/mL
- concentration at 65 min ([2]; 2 mg/kg BW, 2 mg/kg BW p.o.): 27 ± 7.27 ng/mL
- concentration at 65 min ([2]; 5 mg/kg BW, 5 mg/kg BW p.o.): 72 ± 19 ng/mL
- concentration at 65 min ([2]; 10 mg/kg BW, 10 mg/kg BW p.o.): 130 ± 40.2 ng/mL
- locomotor activity ([4]; highest dose (10 mg/kg)): didn't have any effect
- spontaneous motor activity ([4]; maximal anxiolytic dose (2 mg/kg), post hoc comparison): not affected
- Pterostilbene level in the pre-frontal cortex tissues [5]: trace levels
Structure (SMILES): COc1cc(/C=C/c2ccc(O)cc2)cc(OC)c1 [pterostilbene]
- Pterostilbene level in the hippocampus (± SD) ([1]; 10 mg/kg BW p.o.): 1.1217 ng/hippocampus and 1.1217 ± 0.1322 ng/hippocampus
- half-life [3]: approximately 2 hr
- locomotor activity (total number of photobeam interruptions per chamber) ([4]; 1-10 mg/kg by oral gavage, one-way ANOVA): no stimulant or depressive actions; also recorded: no significant effect
- sedating tendency in EPM and locomotor activity monitoring chambers ([4]; higher doses): did not show any sedating tendency
